Key:
[1] = Acute toxicity in Kunming mouse assessed as death at 1000 mg/kg,IG measured up to 1 week; assay type: organism-based; settings: in vivo, po, 168 h, time < 1 weeks
Mus musculus [2] = assay: Hypouricemic activity in Kunming mouse model of xanthine and potassium oxonate-induced acute hyperuricemia assessed as decrease in serum uric acid concentration at 0.5 mg/kg, po and measured after 4 hrs; assay type: functional
Mus musculus [3] = assay: Hypouricemic activity in Kunming mouse model of xanthine and potassium oxonate-induced acute hyperuricemia assessed as decrease in serum uric acid concentration at 1 mg/kg, po and measured after 4 hrs; assay type: functional
Mus musculus [4] = assay: Hypouricemic activity in Kunming mouse model of xanthine and potassium oxonate-induced acute hyperuricemia assessed as decrease in serum uric acid ratio at 2 mg/kg,po and measured after 4 hrs; assay type: functional; design: scale not given: the % may be the effect or the level left
[5] = Tmax in Wistar rat at 10 mg/kg, po measured up to 24 hrs by LC-MS/MS analysis; assay type: ADME, organism-based; settings: in vivo
[6] = MRT (0 to infinity) in Wistar rat at 10 mg/kg, po measured up to 24 hrs by LC-MS/MS analysis; assay type: ADME, organism-based; settings: in vivo
[7] = Subacute toxicity in Kunming mouse assessed as ruffled fur at 100 mg/kg, po for 15 days; assay type: organism-based; settings: in vivo, 360 h, time 15 day
Mus musculus [8] = assay: Hypouricemic activity in Kunming mouse model of xanthine and potassium oxonate-induced acute hyperuricemia assessed as decrease in serum uric acid ratio at 0.5 mg/kg, po and measured after 4 hrs; assay type: functional; design: scale not given: the % may be the effect or the level left
[9] = Half life in Wistar rat at 10 mg/kg, po measured up to 24 hrs by LC-MS/MS analysis; assay type: ADME, organism-based; settings: in vivo
Mus musculus [10] = assay: Hypouricemic activity in Kunming mouse model of xanthine and potassium oxonate-induced acute hyperuricemia assessed as decrease in serum uric acid ratio at 2 mg/kg, po incubated for more than 4 hrs; assay type: functional; design: scale not given: the % may be the effect or the level left
[11] = Subacute toxicity in Kunming mouse assessed as death at 100 mg/kg, po for 15 days; assay type: organism-based; settings: in vivo, 360 h, time 15 day
[12] = AUC (0 to infinity) in Wistar rat at 2 mg/kg, iv measured up to 24 hrs by LC-MS/MS analysis; assay type: ADME, organism-based; design: dose 2 mg/kg, time < 24 hrs, route iv; settings: in vivo
[13] = Acute toxicity in Kunming mouse assessed as clonic convulsion at 1000 mg/kg, IG measured up to 7 days; assay type: organism-based; settings: in vivo, po, 168 h, time < 7 day
[14] = Toxicity in Kunming mouse assessed as mild edema in proximal tubules at 100 mg/kg, po for 15 days by hematoxylin-eosin staining based histological analysis; assay type: organism-based; settings: in vivo, 360 h, time 15 day
[15] = AUC (0 to t) in Wistar rat at 10 mg/kg, po measured up to 24 hrs by LC-MS/MS analysis; assay type: ADME, organism-based; design: dose 10 mg/kg, time < 24 hrs, route po; settings: in vivo
[16] = Clearance in Wistar rat at 2 mg/kg, iv measured up to 24 hrs by LC-MS/MS analysis; assay type: ADME, organism-based; settings: in vivo
[17] = Subacute toxicity in Kunming mouse assessed as anorexia at 100 mg/kg, po for 15 days; assay type: organism-based; settings: in vivo, 360 h, time 15 day
Mus musculus [18] = assay: Hypouricemic activity in Kunming mouse model of xanthine and potassium oxonate-induced acute hyperuricemia assessed as decrease in serum uric acid concentration at 4 mg/kg, po and measured after 4 hrs; assay type: functional
[19] = MRT (0 to infinity) in Wistar rat at 2 mg/kg, iv measured up to 24 hrs by LC-MS/MS analysis; assay type: ADME, organism-based; settings: in vivo
[20] = Half life in Wistar rat at 2 mg/kg, iv measured up to 24 hrs by LC-MS/MS analysis; assay type: ADME, organism-based; settings: in vivo

CC(C)(Sc1nc2ncccc2n1Cc1ccc(Br)c2ccccc12)C(=O)O
Activity [1]: Non-Toxic
Activity (Mus musculus [2]): 452.6 µM
Activity (Mus musculus [3]): 208.2 µM
Activity (Mus musculus [4]): 92.9%
Tmax [5]: 0.3 h
MRT inf [6]: 3.3 h
Activity [7]: Non-Toxic
Activity (Mus musculus [8]): 66.2%
half-life [9]: 2.2 h
Activity (Mus musculus [10]): 96.1%
Activity [11]: Non-Toxic
AUC(0-inf) [12]: 16400 ng·h/mL
Activity [13]: Non-Toxic
Activity [14]: Non-Toxic
AUC(0-t) at 24 h [15]: 48800 ng·h/mL
clearance [16]: 2.2 mL/min/kg
Activity [17]: Non-Toxic
Activity (Mus musculus [18]): 199.6 µM
MRT inf [19]: 1 h
half-life [20]: 1.8 h

Source: ChEMBL document CHEMBL5154714, “Discovery of Novel Bicyclic Imidazolopyridine-Containing Human Urate Transporter 1 Inhibitors as Hypouricemic Drug Candidates with Improved Efficacy and Favorable Druggability” (J Med Chem, 2022)
